In ChEMBL document CHEMBL4406872, “Synthesis and structure activity relationship of 1, 3-benzo-thiazine-2-thiones as selective HDAC8 inhibitors” (Eur J Med Chem, 2019):

experiment: physchem; conditions: bicarbonate buffer

Structure (SMILES) | remaining at 24 h, 5000 µM [%]
Fc1ccc2c(c1)C1=NCCN1C(=S)S2 | > 95
S=C1Sc2cc(Br)ccc2C2=NCCCN12 | > 95
Cc1cccc2c1C1=NCCN1C(=S)S2 | > 95
N=C1Sc2ccccc2C2=NCCCN12 | < 5
